Active and inactive are the calls of the source. The calls are words filed in the database; no cut-off is given here.
What was measured:
[1] = target: Mitogen-activated protein kinase 15 (Homo sapiens) (UniProt Q8TD08); experiment: Inhibition of human ERK7 assessed as residual activity at 1 uM using MBP as substrate by [gamma-33P]-ATP assay relative to control
[2] = target: Serine/threonine-protein kinase PLK3 (Homo sapiens) (UniProt Q9H4B4); experiment: Inhibition of human PLK3 assessed as residual activity at 1 uM using casein as substrate by [gamma-33P]-ATP assay relative to control
[3] = target: T1, Serine/threonine-protein kinase Chk1 (Homo sapiens) (UniProt O14757); experiment: Inhibition of hydroxyurea-induced CHK1 phosphorylation at S317 residue in human HCT116 cells at 20 uM treated for 8 hrs starting from 24 hrs post hydroxyurea addition by Western blot analysis; format: cell-based
T1 sequence (whole entry): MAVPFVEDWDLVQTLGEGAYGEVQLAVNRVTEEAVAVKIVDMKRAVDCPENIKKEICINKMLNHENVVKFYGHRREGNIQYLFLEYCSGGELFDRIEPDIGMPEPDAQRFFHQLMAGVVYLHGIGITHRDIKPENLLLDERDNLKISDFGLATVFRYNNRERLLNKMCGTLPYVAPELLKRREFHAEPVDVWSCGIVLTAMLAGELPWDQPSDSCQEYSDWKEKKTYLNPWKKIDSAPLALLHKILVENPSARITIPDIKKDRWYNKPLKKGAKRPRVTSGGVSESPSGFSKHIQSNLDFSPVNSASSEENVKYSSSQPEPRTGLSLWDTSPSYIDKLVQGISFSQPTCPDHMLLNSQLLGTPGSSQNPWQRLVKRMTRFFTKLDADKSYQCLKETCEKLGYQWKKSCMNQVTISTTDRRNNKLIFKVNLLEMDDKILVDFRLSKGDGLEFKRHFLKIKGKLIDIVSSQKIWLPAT

[4] = target: Protein kinase C gamma type (Homo sapiens) (UniProt P05129); experiment: Inhibition of human PKCgamma assessed as residual activity at 1 uM using ERMRPRKRQGSVRRRV as substrate by [gamma-33P]-ATP assay relative to control
[5] = target: Mitogen-activated protein kinase kinase kinase 9 (Homo sapiens) (UniProt P80192); experiment: Inhibition of human MLK1 assessed as residual activity at 1 uM using casein as substrate by [gamma-33P]-ATP assay relative to control
[6] = target: Serine/threonine-protein kinase pim-3 (Homo sapiens) (UniProt Q86V86); experiment: Inhibition of human PIM3 assessed as residual activity at 1 uM using RSRHSSYPAGT as substrate by [gamma-33P]-ATP assay relative to control
[7] = target: Wee1-like protein kinase (Homo sapiens) (UniProt P30291); experiment: Inhibition of human WEE1 assessed as residual activity at 1 uM using MBP as substrate by [gamma-33P]-ATP assay relative to control
Chain of Wee1-like protein kinase (Homo sapiens) (P30291 whole entry, looked up): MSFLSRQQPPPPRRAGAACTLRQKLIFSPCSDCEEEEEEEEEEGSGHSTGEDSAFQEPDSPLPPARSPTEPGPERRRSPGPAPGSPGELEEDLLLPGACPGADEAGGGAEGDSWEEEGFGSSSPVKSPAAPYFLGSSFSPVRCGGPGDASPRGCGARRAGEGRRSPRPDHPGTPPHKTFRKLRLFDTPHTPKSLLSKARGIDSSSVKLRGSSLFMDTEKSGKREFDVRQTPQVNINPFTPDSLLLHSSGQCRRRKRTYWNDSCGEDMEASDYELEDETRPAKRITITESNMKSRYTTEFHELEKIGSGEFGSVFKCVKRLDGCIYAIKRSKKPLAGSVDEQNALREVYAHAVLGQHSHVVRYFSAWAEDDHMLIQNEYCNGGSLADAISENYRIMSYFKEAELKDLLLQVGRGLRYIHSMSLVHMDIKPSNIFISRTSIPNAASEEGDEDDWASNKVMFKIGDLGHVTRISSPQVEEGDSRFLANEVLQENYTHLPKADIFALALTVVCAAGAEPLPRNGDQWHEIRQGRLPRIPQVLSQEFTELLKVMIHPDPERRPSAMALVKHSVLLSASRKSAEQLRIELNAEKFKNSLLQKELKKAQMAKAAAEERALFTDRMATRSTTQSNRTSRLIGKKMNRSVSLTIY

[8] = target: T1, Serine/threonine-protein kinase Chk1 (Homo sapiens); experiment: Inhibition of CHK1 phosphorylation at S345 residue in human HCT116 cells at 20 uM after 8 hrs by Western blot analysis; format: cell-based
[9] = target: Serine/threonine-protein kinase Nek11 (Homo sapiens) (UniProt Q8NG66); experiment: Inhibition of human NEK11 assessed as residual activity at 1 uM using MBP as substrate by [gamma-33P]-ATP assay relative to control
Chain of Serine/threonine-protein kinase Nek11 (Homo sapiens) (Q8NG66 whole entry): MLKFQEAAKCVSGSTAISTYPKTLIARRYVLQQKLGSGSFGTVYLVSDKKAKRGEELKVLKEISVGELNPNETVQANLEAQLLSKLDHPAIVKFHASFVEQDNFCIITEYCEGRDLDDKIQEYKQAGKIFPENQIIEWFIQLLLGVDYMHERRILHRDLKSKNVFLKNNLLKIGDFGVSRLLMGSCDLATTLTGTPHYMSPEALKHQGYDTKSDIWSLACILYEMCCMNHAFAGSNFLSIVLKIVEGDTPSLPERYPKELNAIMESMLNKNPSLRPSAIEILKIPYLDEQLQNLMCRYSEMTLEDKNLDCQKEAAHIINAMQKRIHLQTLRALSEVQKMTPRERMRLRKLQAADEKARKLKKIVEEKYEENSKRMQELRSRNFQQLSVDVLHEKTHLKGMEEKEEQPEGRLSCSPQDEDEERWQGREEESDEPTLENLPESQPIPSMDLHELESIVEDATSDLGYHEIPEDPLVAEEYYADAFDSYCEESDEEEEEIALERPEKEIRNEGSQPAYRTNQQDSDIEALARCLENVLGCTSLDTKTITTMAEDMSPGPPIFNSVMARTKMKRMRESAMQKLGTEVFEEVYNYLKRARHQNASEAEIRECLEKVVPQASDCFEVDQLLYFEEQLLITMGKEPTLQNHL

[10] = target: SRSF protein kinase 2 (Homo sapiens) (UniProt P78362); experiment: Inhibition of human SRPK2 assessed as residual activity at 1 uM using GRSRSRSRSR as substrate by [gamma-33P]-ATP assay relative to control
[11] = target: MAP kinase-activated protein kinase 5 (Homo sapiens) (UniProt Q8IW41); experiment: Inhibition of human MAPKAPK5 assessed as residual activity at 1 uM using KKLNRTLSVA as substrate by [gamma-33P]-ATP assay relative to control
[12] = target: Serine/threonine-protein kinase Sgk1 (Homo sapiens) (UniProt O00141); experiment: Inhibition of human SGK1 assessed as residual activity at 1 uM using KGSGSGRPRTSSFAEG as substrate by [gamma-33P]-ATP assay relative to control
[13] = target: CDK18/Cyclin Y (Homo sapiens) (UniProt Q07002+Q8ND76); experiment: Inhibition of human CDK18/cyclin-Y assessed as residual activity at 1 uM using RB protein as substrate by [gamma-33P]-ATP assay relative to control; format: protein-complex assay
[14] = target: Cyclin-dependent kinase 2/cyclin E1 (Homo sapiens) (UniProt P24864+P24941); experiment: Inhibition of human CDK2/cyclin-E assessed as residual activity at 1 uM using histone H1 as substrate by [gamma-33P]-ATP assay relative to control; format: protein-complex assay
[15] = target: PAS domain-containing serine/threonine-protein kinase (Homo sapiens) (UniProt Q96RG2); experiment: Inhibition of human PASK assessed as residual activity at 1 uM using KKLNRTLSFAEPG as substrate by [gamma-33P]-ATP assay relative to control
Chain of PAS domain-containing serine/threonine-protein kinase (Homo sapiens) (Q96RG2 whole entry, the tested form may be a part): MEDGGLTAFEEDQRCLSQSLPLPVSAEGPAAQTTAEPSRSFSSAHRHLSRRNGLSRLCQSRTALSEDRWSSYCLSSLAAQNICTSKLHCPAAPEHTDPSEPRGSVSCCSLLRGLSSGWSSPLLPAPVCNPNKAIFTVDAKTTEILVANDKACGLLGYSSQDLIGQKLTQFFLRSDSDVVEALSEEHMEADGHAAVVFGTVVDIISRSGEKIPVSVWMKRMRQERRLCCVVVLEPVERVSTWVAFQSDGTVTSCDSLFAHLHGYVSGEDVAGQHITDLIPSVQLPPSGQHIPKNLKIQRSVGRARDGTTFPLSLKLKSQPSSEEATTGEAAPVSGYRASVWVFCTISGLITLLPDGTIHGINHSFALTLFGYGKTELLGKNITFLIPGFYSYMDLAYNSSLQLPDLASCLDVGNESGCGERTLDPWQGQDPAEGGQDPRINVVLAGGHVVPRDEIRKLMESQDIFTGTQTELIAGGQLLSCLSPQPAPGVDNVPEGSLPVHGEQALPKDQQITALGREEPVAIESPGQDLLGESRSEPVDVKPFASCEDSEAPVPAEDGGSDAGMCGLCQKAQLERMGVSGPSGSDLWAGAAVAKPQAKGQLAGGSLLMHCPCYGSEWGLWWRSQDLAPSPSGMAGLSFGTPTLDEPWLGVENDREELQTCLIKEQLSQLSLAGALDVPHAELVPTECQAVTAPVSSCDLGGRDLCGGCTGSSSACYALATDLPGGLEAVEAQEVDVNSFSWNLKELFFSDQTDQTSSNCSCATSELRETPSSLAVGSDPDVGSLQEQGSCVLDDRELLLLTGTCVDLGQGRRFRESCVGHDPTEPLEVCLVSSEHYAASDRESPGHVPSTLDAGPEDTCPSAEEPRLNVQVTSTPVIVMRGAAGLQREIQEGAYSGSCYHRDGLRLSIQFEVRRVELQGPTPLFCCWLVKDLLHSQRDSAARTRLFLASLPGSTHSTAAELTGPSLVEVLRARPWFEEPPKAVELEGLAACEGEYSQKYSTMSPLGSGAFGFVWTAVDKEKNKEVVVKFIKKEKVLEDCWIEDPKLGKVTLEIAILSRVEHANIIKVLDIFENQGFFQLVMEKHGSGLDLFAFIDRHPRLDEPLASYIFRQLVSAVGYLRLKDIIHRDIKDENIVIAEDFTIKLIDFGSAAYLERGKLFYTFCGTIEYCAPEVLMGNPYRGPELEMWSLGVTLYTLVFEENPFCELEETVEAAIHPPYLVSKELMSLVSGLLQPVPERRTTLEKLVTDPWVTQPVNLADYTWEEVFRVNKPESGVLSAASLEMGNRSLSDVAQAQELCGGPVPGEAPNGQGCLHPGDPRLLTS

[16] = target: CDK2/Cyclin A2 (Homo sapiens) (UniProt P24941+P20248); experiment: Inhibition of human CDK2/cyclin-A assessed as residual activity at 1 uM using histone H1 as substrate by [gamma-33P]-ATP assay relative to control; format: protein-complex assay
[17] = target: Focal adhesion kinase 1 (Homo sapiens) (UniProt Q05397); experiment: Inhibition of human FAK assessed as residual activity at 1 uM using poly[Glu:Tyr] (4:1) as substrate by [gamma-33P]-ATP assay relative to control
[18] = target: Activated CDC42 kinase 1 (Homo sapiens) (UniProt Q07912); experiment: Inhibition of human ACK1 assessed as residual activity at 1 uM using EAIYAAPFAKKK as substrate by [gamma-33P]-ATP assay relative to control
[19] = target: Receptor tyrosine-protein kinase erbB-2 (Homo sapiens) (UniProt P04626); experiment: Inhibition of human ERBB2 assessed as residual activity at 1 uM using poly[Glu:Tyr] (4:1) as substrate by [gamma-33P]-ATP assay relative to control
[20] = target: STE20/SPS1-related proline-alanine-rich protein kinase (Homo sapiens) (UniProt Q9UEW8); experiment: Inhibition of human STK39 assessed as residual activity at 1 uM using MBP as substrate by [gamma-33P]-ATP assay relative to control
[21] = target: Casein kinase I isoform gamma-1 (Homo sapiens) (UniProt Q9HCP0); experiment: Inhibition of human CK1gamma1 assessed as residual activity at 1 uM using KRRRAL[pS]VASLPGL as substrate by [gamma-33P]-ATP assay relative to control
[22] = target: Serine/threonine-protein kinase ICK (Homo sapiens) (UniProt Q9UPZ9); experiment: Inhibition of human LCK2 assessed as residual activity at 1 uM using MBP as substrate by [gamma-33P]-ATP assay relative to control
[23] = target: Serine/threonine-protein kinase ULK2 (Homo sapiens) (UniProt Q8IYT8); experiment: Inhibition of human ULK2 assessed as residual activity at 1 uM using MBP as substrate by [gamma-33P]-ATP assay relative to control
Chain of Serine/threonine-protein kinase ULK2 (Homo sapiens) (Q8IYT8 whole entry): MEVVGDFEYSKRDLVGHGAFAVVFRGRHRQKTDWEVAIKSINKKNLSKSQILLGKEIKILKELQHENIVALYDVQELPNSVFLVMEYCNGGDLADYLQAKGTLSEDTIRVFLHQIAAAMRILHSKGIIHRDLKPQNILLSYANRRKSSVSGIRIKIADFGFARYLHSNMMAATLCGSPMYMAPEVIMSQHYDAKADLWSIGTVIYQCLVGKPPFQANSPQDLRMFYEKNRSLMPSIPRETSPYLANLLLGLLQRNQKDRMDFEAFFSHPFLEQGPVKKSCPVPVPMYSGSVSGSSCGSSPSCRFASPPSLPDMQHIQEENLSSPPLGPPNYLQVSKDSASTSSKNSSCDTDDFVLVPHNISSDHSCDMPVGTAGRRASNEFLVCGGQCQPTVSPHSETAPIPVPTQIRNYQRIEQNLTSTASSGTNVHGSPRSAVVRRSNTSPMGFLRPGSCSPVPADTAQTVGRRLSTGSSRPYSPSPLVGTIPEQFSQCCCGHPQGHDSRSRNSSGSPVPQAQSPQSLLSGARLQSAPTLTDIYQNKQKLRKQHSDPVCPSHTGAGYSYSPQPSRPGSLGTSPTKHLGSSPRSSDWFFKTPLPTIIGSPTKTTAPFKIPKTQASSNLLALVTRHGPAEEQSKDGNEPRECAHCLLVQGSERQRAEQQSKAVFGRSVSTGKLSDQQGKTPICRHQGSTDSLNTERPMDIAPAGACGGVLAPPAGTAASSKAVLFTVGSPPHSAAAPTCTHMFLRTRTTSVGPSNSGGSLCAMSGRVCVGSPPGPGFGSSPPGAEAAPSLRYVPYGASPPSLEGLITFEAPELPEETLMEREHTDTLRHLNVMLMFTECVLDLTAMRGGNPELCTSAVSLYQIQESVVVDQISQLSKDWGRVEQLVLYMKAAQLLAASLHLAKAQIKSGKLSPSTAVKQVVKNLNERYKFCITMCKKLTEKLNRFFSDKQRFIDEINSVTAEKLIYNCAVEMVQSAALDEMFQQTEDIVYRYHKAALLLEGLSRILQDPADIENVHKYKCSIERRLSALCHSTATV

[24] = target: Cyclin-dependent kinase 1/cyclin B1 (Homo sapiens) (UniProt P06493+P14635); experiment: Inhibition of human CDK1/cyclinB assessed as residual activity at 1 uM using Histone H1 as substrate by [gamma-33P]-ATP assay relative to control; format: protein-complex assay
Chain of Cyclin-dependent kinase 1/cyclin B1 (Homo sapiens) (P06493 whole entry, looked up): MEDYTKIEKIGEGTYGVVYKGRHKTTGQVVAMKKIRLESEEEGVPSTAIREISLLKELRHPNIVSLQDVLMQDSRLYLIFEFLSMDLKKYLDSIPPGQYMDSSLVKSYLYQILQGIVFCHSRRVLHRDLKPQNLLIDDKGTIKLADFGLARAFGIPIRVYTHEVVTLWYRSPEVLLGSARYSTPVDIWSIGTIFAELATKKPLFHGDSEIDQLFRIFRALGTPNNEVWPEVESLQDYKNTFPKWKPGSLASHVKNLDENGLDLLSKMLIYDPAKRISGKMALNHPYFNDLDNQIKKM
Chain of Cyclin-dependent kinase 1/cyclin B1 (Homo sapiens) (P14635 whole entry, looked up): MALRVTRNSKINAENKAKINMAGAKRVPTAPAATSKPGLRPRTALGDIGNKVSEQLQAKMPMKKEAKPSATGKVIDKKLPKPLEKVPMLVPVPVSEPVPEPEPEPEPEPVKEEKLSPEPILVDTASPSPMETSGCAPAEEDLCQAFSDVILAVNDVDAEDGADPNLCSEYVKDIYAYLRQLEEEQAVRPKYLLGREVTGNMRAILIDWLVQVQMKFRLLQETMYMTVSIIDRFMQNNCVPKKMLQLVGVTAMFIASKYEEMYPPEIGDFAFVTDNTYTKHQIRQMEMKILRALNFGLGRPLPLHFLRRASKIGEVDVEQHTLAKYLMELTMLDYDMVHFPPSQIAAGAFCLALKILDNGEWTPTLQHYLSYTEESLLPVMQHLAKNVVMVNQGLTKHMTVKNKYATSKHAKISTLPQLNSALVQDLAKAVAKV

C(=C\c1ccccc1)/C[N+]12CN3CN(CN(C3)C1)C2
Activity [1]: 95 to 96.7% | Activity [2]: 96.3 to 96.8% | inhibition [3]: Active | Activity [4]: 94.5 to 96.3% | Activity [5]: 96.8% | Activity [6]: 104 to 107% | Activity [7]: 112 to 120% | inhibition [8]: inactive | Activity [9]: 95 to 96.2% | Activity [10]: 107 to 111% | Activity [11]: 93.2 to 94.5% | Activity [12]: 93.4 to 94.1% | Activity [13]: 92.5 to 93.7% | Activity [14]: 96.3 to 96.9%

ClC/C=C/C[N+]12CN3CN(CN(C3)C1)C2
Activity [15]: 94.3 to 95.1% | Activity [16]: 97.3 to 97.8% | Activity [17]: 92.5 to 96% | Activity [18]: 90.6 to 94.8% | Activity [19]: 96.7 to 96.8% | Activity [20]: 94.4 to 94.9% | Activity [21]: 94.4 to 96.5% | Activity [22]: 85.1 to 89.7% | Activity [23]: 93.7 to 95.4% | Activity [24]: 94.3 to 96.5%
